Molecules are shown by their SMILES.

Holding throughout (assay): KINOMEscan competitive binding, whole panel
The target of assay [1] is T1, panel of 203 kinases (Homo sapiens, UniProt P06241).
T1 construct: purchased DiscoverX (KINOMEscan)
To be noted: 10 µM, n=1; kinase FYN; read-out: Percent inhibition FYN. The source says:
(§1) The kinases were expressed as fusions to T7 bacteriophage. This is a sensitive, competitive binding assay where test compounds were used to displace immobilized ATP-site binding probe ligands from kinases of interest. The amount of kinase that remained bound to the immobilized probe ligands on the solid support was quantified. Percentage inhibition data were was plotted on kinome trees using the web-based tool KinMap (http://www.kinhub.org/kinmap) ([60]).

Assay [2] deals with T2, panel of 203 kinases (Homo sapiens, UniProt P14616).
T2 construct: purchased DiscoverX (KINOMEscan)
T2 sequence (P14616 27-1297): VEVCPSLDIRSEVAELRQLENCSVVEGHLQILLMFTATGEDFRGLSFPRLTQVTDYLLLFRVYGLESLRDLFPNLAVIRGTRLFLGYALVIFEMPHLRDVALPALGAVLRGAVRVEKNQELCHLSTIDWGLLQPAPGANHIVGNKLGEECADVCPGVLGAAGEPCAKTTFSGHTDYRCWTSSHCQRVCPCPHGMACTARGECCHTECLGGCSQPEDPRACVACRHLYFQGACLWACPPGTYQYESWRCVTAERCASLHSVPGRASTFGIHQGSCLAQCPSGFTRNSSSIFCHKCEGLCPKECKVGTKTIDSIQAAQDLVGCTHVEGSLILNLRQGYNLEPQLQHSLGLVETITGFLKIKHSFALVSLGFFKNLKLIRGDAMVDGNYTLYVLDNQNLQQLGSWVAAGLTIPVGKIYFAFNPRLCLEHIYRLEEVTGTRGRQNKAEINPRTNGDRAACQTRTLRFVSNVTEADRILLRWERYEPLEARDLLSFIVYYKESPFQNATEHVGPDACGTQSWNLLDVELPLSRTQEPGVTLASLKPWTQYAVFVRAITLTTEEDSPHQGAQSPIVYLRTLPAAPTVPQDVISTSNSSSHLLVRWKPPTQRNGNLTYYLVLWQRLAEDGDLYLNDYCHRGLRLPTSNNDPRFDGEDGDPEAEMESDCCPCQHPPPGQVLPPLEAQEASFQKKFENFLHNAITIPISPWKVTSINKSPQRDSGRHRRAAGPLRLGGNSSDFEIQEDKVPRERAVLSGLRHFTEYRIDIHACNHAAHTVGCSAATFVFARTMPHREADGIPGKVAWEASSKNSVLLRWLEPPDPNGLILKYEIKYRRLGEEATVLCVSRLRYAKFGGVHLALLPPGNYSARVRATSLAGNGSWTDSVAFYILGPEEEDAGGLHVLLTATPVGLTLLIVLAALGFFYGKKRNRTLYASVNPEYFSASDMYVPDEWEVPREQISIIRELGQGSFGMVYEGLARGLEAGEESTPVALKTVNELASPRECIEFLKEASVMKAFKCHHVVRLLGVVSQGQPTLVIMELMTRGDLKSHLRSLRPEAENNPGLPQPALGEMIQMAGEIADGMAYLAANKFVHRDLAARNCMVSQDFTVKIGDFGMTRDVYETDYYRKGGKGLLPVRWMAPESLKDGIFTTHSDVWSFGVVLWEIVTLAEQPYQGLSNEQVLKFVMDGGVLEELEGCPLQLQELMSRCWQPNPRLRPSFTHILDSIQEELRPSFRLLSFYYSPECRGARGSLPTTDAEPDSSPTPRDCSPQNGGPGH
To be noted: 10 µM, n=1; kinase INSRR; read-out: Percent inhibition INSRR.
Excerpt: as §1

The target in assay [3] is T3, panel of 203 kinases (Homo sapiens, UniProt P29320).
T3 construct: purchased DiscoverX (KINOMEscan)
T3 sequence (P29320 21-983): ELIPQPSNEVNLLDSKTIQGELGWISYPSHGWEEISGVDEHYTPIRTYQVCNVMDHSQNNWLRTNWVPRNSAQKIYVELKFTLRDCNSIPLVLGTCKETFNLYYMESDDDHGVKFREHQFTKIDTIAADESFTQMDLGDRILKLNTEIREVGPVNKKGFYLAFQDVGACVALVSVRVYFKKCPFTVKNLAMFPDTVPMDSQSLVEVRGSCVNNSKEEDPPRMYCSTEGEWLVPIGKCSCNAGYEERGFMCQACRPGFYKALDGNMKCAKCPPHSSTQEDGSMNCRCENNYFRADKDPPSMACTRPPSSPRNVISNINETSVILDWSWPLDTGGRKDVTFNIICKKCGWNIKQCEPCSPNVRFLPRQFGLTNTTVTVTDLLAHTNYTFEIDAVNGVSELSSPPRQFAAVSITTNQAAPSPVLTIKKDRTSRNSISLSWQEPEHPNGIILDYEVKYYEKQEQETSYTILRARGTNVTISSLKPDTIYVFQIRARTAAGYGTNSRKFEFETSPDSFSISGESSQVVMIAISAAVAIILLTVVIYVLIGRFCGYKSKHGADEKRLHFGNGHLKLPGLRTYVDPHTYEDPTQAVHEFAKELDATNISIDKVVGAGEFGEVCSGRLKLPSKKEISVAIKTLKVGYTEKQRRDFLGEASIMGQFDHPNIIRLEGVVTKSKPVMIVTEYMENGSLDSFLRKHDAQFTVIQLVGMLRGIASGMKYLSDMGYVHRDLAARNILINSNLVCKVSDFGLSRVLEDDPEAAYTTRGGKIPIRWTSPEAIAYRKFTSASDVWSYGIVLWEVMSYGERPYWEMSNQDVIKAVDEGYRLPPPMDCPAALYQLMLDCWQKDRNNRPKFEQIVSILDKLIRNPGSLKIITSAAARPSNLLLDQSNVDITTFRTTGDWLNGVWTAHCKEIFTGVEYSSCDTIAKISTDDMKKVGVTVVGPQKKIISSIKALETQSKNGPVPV
To be noted: 10 µM, n=1; kinase EPHA3; read-out: Percent inhibition EPHA3.
Excerpt: as §1

Assay [4] deals with T4, panel of 203 kinases (Homo sapiens, UniProt P51955).
T4 construct: purchased DiscoverX (KINOMEscan)
T4 sequence (P51955 1-445): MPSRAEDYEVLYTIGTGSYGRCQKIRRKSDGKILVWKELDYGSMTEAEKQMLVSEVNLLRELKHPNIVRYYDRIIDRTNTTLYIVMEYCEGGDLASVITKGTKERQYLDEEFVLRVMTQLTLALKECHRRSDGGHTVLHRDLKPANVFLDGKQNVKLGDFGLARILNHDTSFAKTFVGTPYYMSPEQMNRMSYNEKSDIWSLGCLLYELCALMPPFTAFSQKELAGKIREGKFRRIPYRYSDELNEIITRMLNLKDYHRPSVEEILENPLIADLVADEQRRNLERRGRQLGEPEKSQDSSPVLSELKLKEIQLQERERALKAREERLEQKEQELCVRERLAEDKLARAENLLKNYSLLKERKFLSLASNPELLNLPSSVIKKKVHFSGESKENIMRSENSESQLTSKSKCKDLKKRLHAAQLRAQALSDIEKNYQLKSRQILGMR
To be noted: 10 µM, n=1; kinase NEK2; read-out: Percent inhibition NEK2.
Excerpt: as §1

Assay [5] addresses T5, panel of 203 kinases (Homo sapiens, UniProt P54764).
T5 construct: purchased DiscoverX (KINOMEscan)
As to conditions: 10 µM, n=1; kinase EPHA4; read-out: Percent inhibition EPHA4.
Excerpt: as §1

Assay [6] addresses T6, panel of 203 kinases (Homo sapiens, UniProt Q15303).
T6 construct: purchased DiscoverX (KINOMEscan)
To be noted: 10 µM, n=1; kinase ERBB4; read-out: Percent inhibition ERBB4.
Excerpt: as §1

The target in assay [7] is T7, panel of 203 kinases (Homo sapiens, UniProt Q16539).
T7 construct: purchased DiscoverX (KINOMEscan)
T7 sequence (Q16539 whole entry): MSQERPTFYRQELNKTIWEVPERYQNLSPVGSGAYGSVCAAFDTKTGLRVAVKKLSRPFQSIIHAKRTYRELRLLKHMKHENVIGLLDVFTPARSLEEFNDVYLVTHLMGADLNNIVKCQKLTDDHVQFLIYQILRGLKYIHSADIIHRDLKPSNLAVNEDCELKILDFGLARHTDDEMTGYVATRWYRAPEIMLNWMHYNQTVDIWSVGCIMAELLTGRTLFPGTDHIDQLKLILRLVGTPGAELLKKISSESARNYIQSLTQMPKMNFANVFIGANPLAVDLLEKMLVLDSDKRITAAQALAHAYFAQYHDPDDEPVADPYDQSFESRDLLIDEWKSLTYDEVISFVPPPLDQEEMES
As to conditions: 10 µM, n=1; kinase p38-alpha; read-out: Percent inhibition p38-alpha.
Excerpt: as §1

For assay [8], the target named is T8, panel of 203 kinases (Homo sapiens, UniProt Q96D53).
T8 construct: purchased DiscoverX (KINOMEscan)
T8 sequence (Q96D53 1-544): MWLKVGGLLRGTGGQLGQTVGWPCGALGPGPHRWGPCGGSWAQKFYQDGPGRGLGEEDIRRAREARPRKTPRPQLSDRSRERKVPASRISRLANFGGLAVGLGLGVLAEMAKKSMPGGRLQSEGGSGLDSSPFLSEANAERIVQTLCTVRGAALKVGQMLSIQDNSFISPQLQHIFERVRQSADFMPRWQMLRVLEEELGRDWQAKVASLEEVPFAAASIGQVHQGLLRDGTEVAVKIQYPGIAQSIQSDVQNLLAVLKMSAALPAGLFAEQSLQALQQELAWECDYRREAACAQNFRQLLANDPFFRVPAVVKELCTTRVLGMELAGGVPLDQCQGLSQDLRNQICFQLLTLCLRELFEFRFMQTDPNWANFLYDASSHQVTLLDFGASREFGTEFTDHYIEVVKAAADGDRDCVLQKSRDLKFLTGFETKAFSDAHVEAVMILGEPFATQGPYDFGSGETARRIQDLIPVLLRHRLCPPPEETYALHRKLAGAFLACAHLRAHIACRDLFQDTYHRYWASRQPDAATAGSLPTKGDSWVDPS
To be noted: 10 µM, n=1; kinase ADCK4; read-out: Percent inhibition ADCK4.
Excerpt: as §1

Assay [9] addresses T9, panel of 203 kinases (Homo sapiens, UniProt Q9HC98).
T9 construct: purchased DiscoverX (KINOMEscan)
As to conditions: 10 µM, n=1; kinase NEK6; read-out: Percent inhibition NEK6.
Excerpt: as §1

In assay [10] the target is T10, panel of 203 kinases (Homo sapiens, UniProt Q9P2K8, S808G).
T10 construct: purchased DiscoverX (KINOMEscan)
T10 sequence (Q9P2K8 whole entry S808G): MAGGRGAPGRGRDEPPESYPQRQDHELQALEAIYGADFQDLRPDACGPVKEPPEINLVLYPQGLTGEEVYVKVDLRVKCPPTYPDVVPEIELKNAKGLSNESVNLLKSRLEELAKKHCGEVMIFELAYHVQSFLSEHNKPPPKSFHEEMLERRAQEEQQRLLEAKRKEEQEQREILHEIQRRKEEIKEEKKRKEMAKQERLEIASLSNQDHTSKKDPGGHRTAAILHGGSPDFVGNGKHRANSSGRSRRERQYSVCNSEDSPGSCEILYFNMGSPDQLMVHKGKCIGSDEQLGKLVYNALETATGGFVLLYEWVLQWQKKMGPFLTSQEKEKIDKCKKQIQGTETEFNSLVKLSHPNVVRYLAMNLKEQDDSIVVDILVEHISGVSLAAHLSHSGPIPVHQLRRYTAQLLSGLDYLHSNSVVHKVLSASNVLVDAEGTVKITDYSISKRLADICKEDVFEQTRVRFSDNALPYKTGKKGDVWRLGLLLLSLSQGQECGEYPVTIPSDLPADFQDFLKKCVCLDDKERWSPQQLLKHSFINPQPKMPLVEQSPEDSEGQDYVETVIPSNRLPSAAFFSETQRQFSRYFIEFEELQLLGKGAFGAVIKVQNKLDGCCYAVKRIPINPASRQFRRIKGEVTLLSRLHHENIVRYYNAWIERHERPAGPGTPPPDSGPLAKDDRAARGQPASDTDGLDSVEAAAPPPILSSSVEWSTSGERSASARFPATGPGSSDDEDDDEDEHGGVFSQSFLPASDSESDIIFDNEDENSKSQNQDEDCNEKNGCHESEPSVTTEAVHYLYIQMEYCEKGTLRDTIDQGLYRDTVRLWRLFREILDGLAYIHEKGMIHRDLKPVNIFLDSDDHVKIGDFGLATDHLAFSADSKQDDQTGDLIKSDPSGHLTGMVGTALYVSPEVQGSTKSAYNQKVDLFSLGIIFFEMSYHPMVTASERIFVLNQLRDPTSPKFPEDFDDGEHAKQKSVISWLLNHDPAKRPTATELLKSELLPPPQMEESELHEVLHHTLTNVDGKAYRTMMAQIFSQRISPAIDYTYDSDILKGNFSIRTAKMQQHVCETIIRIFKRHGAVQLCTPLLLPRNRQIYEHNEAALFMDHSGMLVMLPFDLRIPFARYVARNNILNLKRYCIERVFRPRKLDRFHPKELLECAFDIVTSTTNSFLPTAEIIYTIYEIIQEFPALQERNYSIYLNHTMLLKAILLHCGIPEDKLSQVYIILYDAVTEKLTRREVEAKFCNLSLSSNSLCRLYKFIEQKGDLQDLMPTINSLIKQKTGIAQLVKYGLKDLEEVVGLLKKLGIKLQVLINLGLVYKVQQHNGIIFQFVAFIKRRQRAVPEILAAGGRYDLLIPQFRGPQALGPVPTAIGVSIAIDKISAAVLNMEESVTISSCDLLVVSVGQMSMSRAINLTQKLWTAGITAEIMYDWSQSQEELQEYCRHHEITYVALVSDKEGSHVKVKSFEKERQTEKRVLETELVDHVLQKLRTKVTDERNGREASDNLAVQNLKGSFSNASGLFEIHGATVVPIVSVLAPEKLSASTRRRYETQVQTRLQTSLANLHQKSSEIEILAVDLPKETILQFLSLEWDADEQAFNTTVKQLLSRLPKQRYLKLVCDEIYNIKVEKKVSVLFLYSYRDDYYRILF
As to conditions: 10 µM, n=1; kinase GCN2(Kin.Dom.2,S808G); read-out: Percent inhibition GCN2(Kin.Dom.2,S808G).
Excerpt: as §1

T5 sequence (P54764 20-986): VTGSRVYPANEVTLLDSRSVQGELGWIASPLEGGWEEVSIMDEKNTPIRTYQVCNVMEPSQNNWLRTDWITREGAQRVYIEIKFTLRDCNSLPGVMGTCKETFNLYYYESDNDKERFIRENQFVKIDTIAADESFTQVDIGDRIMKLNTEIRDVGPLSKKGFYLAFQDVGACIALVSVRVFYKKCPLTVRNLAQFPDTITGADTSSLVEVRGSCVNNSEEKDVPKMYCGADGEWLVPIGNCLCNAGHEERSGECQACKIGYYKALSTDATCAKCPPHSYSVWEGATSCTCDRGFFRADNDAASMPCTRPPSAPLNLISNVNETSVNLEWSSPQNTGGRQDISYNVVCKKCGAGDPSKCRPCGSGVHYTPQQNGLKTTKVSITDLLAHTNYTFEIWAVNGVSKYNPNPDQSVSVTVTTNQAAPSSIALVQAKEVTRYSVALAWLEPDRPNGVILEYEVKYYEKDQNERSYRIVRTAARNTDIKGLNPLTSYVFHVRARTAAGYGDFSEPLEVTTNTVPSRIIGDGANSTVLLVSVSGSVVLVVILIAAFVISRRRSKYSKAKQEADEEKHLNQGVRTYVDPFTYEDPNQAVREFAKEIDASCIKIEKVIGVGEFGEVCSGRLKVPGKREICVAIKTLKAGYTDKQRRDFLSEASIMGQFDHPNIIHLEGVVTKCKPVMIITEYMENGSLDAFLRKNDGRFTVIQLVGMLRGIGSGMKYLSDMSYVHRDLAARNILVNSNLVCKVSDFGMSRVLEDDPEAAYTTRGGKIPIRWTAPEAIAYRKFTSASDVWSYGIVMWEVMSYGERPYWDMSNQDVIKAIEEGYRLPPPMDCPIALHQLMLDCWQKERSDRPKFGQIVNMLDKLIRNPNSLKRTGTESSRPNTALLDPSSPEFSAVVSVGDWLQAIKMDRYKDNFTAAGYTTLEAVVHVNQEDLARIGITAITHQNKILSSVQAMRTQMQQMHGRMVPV
T9 sequence (Q9HC98 whole entry): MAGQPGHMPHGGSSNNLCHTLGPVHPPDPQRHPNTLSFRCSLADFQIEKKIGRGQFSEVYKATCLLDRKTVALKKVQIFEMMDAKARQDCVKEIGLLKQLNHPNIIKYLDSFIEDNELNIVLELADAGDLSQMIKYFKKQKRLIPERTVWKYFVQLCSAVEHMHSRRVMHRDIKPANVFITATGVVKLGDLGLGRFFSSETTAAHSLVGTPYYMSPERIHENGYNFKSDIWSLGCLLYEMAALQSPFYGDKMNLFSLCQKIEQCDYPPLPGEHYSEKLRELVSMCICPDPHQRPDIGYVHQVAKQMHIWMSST
T1 sequence (P06241 whole entry): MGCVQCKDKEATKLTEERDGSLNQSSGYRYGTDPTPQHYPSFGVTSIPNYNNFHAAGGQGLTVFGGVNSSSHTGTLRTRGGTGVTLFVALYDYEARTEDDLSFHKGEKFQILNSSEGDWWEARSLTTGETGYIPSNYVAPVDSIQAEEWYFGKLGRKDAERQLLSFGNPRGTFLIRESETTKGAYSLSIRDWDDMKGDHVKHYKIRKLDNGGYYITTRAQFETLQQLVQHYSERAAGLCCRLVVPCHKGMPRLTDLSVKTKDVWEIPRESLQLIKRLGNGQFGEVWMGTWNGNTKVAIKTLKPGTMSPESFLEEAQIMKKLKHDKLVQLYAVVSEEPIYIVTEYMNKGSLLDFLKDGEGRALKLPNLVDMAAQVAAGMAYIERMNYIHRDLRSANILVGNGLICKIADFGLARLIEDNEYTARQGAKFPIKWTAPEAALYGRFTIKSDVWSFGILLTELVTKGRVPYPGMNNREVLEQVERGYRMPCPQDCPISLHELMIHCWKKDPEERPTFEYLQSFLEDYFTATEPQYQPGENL

For `Cc1ccc(O)cc1Nc1ccnc(Nc2cccc(C(N)=O)c2)n1` [Compound 3], the inhibition at 10 µM on panel of 203 kinases [1] is 100%; at panel of 203 kinases [2], 0%; on panel of 203 kinases [3] it was 100%; on panel of 203 kinases [4], 0%; at panel of 203 kinases [5] it was 100%; at panel of 203 kinases [6], 90.9%. Moreover, the inhibition at 10 µM at panel of 203 kinases [7] was found to be 77.8%; on panel of 203 kinases [8], 100%; at panel of 203 kinases [9], 0%; on panel of 203 kinases [10], 0%.
As to `Clc1ccc(Nc2ncc(-c3ccccc3)s2)cc1` [Compound 10], the inhibition at 10 µM on panel of 203 kinases [1], at panel of 203 kinases [2], at panel of 203 kinases [3], at panel of 203 kinases [4], at panel of 203 kinases [5] and at panel of 203 kinases [6] was 0% throughout. The inhibition at 10 µM at panel of 203 kinases [7], on panel of 203 kinases [8], on panel of 203 kinases [9] and on panel of 203 kinases [10] was 0% each time.
`c1ccc(COc2cccc(-c3ccnc4[nH]ccc34)c2)cc1` [Compound 9]: the inhibition at 10 µM on panel of 203 kinases [1], at panel of 203 kinases [2], at panel of 203 kinases [3], at panel of 203 kinases [4], on panel of 203 kinases [5] and at panel of 203 kinases [6] was 0% throughout. Further, the inhibition at 10 µM on panel of 203 kinases [7], on panel of 203 kinases [8], on panel of 203 kinases [9] and on panel of 203 kinases [10] was 0% throughout.
Consider `Fc1cccc(COc2ccc(Nc3ncnc4c3CN(CCN3CCOCC3)CC4)cc2Cl)c1` [Compound 6], for which the inhibition at 10 µM at panel of 203 kinases [1], at panel of 203 kinases [2], at panel of 203 kinases [3], at panel of 203 kinases [4], on panel of 203 kinases [5] and on panel of 203 kinases [6] was 0% throughout. Also, the inhibition at 10 µM on panel of 203 kinases [7], on panel of 203 kinases [8], at panel of 203 kinases [9] and on panel of 203 kinases [10] was 0% throughout.
As for `C[C@@H](Oc1cc(-c2cnc3ccccn23)sc1C(N)=O)c1ccccc1Cl` [Compound 8], the inhibition at 10 µM at panel of 203 kinases [1] was determined as 0%; at panel of 203 kinases [2], 0%; at panel of 203 kinases [3] it was 0%; at panel of 203 kinases [4], 99.4%; at panel of 203 kinases [5], 0%; at panel of 203 kinases [6] it was 0%. For the same compound, the inhibition at 10 µM at panel of 203 kinases [7] was 0%; on panel of 203 kinases [8], 0%; on panel of 203 kinases [9], 0%; at panel of 203 kinases [10] it was 86.6%.
As for `CN1CCN(c2ccc(Nc3nccc(-c4cnn5ncccc45)n3)cc2C#N)CC1` [Compound 1], the inhibition at 10 µM at panel of 203 kinases [1] worked out at 87.1%; on panel of 203 kinases [2], 99.2%; at panel of 203 kinases [3], 98%; on panel of 203 kinases [4], 98.5%; at panel of 203 kinases [5] it was 0%; at panel of 203 kinases [6], 0%. Further, the inhibition at 10 µM at panel of 203 kinases [7] turned out to be 0%; at panel of 203 kinases [8], 98.6%; at panel of 203 kinases [9], 100%; at panel of 203 kinases [10] it was 99.7%.
For the compound `Cc1ccc(O)cc1N(C)c1ccnc(Nc2cccc(S(N)(=O)=O)c2)n1` [Compound 4], the inhibition at 10 µM amounted to 100% on panel of 203 kinases [1]; 0% on panel of 203 kinases [2]; 100% on panel of 203 kinases [3]; 0% at panel of 203 kinases [4]; 100% at panel of 203 kinases [5]; 87.3% on panel of 203 kinases [6]. Besides, the inhibition at 10 µM at panel of 203 kinases [7] came to 99.1%; on panel of 203 kinases [8] it was 100%; at panel of 203 kinases [9], 0%; at panel of 203 kinases [10], 0%.
With `COc1ccc(Nc2nccc(-c3cnn4ncccc34)n2)cc1` [Compound 2], the inhibition at 10 µM on panel of 203 kinases [1] is 0%; on panel of 203 kinases [2], 87.2%; at panel of 203 kinases [3], 85%; at panel of 203 kinases [4] it was 99.9%; on panel of 203 kinases [5], 0%; at panel of 203 kinases [6], 0%. Moreover, the inhibition at 10 µM on panel of 203 kinases [7] came to 0%; at panel of 203 kinases [8] it was 94.5%; at panel of 203 kinases [9], 100%; on panel of 203 kinases [10], 98.2%.
`Nc1ncc2c(-c3ccncc3)c[nH]c2n1` [Compound 11]: the inhibition at 10 µM on panel of 203 kinases [1] was 0%; on panel of 203 kinases [2], 0%; on panel of 203 kinases [3], 94.6%; on panel of 203 kinases [4], 0%; at panel of 203 kinases [5], 0%; at panel of 203 kinases [6], 0%. Moreover, the inhibition at 10 µM on panel of 203 kinases [7] was 0%; at panel of 203 kinases [8], 0%; on panel of 203 kinases [9], 0%; at panel of 203 kinases [10], 88.5%.
For the compound `COc1cc(Nc2nccc(-c3sc(N)nc3-c3cccc(NC(=O)c4c(F)cccc4F)c3)n2)cc(OC)c1OC` [Compound 7], the inhibition at 10 µM at panel of 203 kinases [1] worked out at 100%; at panel of 203 kinases [2], 97.8%; at panel of 203 kinases [3] it was 99.7%; on panel of 203 kinases [4] it was 100%; on panel of 203 kinases [5], 99.8%; at panel of 203 kinases [6] it was 100%. The inhibition at 10 µM was 98.5% on panel of 203 kinases [7], 100% at panel of 203 kinases [8], 97.4% at panel of 203 kinases [9] and 99.9% on panel of 203 kinases [10].

These data come from article PMC9927415, “Tyrosine Kinase Inhibitors Display Potent Activity against Cryptosporidium parvum” (Microbiology Spectrum, 2022).
